Experimental data: ChEMBL document CHEMBL1201862, “PubChem BioAssay data set” (2004)
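Five compound concentrations were applied to cells in 96-well plates for 48 hours; endpoints were derived by simple linear interpolation of the resulting dose-response curve. GI50 = concentration required for 50% inhibition of growth.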 The source made the active and inactive calls. No stated cut-off is given here; in the data, active = GI50 up to about 1.1 µM and inactive = higher.

Tests used:
Test in all cases: inhibition of tumour cell growth, NCI panel, 48 h
MOLT-4 = tested on: MOLT-4
786-0 = tested on: 786-0
HOP-62 = tested on: HOP-62
LOX IMVI = tested on: LOX IMVI
HT-29 = tested on: HT-29
K562 = tested on: K562
UO-31 = tested on: UO-31
HCC 2998 = tested on: HCC 2998
OVCAR-5 = tested on: OVCAR-5
A498 = tested on: A498
SNB-75 = tested on: SNB-75
CAKI-1 = tested on: CAKI-1
HL-60 = tested on: HL-60
U-251 = tested on: U-251
NCI-H226 = tested on: NCI-H226
OVCAR-3 = tested on: OVCAR-3
NCI-H522 = tested on: NCI-H522

Measured: GI50

CCOC(=O)N[C@@H]1C(CC(=O)OC)O[C@H]2OC(C)(C)O[C@H]21 (stereo partly specified)
inactive: MOLT-4 > 100 µM | 786-0 > 100 µM | HOP-62 > 100 µM | LOX IMVI > 100 µM | HT-29 > 100 µM | K562 > 100 µM | UO-31 > 100 µM | HCC 2998 > 100 µM | OVCAR-5 > 100 µM | A498 > 100 µM | SNB-75 > 100 µM | CAKI-1 > 100 µM | HL-60 > 100 µM | U-251 > 100 µM | NCI-H226 > 100 µM | OVCAR-3 > 100 µM

CCOP(=O)(OCC)/C(C#N)=C\c1ccc(OC(C)=O)cc1
inactive: MOLT-4 > 100 µM | 786-0 > 100 µM | HOP-62 > 100 µM | LOX IMVI > 100 µM | HT-29 > 100 µM | K562 > 100 µM | UO-31 > 100 µM | HCC 2998 > 100 µM | OVCAR-5 > 100 µM | A498 > 100 µM | SNB-75 > 78.5 µM | CAKI-1 > 100 µM | HL-60 > 100 µM | U-251 > 100 µM | NCI-H226 > 100 µM | OVCAR-3 > 100 µM | NCI-H522 > 80.2 µM

Cc1cc2c(=O)c3ccc(Cl)cc3[nH]c2c(C(N)=O)c1C
inactive: MOLT-4 > 100 µM | 786-0 > 100 µM | HOP-62 > 100 µM | LOX IMVI > 100 µM | HT-29 > 100 µM | K562 83.2 µM | UO-31 > 100 µM | HCC 2998 > 100 µM | OVCAR-5 > 100 µM | A498 > 100 µM | SNB-75 35.5 µM | HL-60 > 100 µM | U-251 > 100 µM | OVCAR-3 > 100 µM | NCI-H522 > 100 µM

NC(CCc1ncc(-c2ccccc2)s1)C(=O)O (stereo unspecified)
inactive: MOLT-4 > 100 µM | 786-0 > 100 µM | LOX IMVI > 100 µM | HT-29 > 100 µM | K562 > 100 µM | UO-31 45.3 µM | HCC 2998 > 100 µM | A498 > 100 µM | SNB-75 85.9 µM | CAKI-1 > 100 µM | HL-60 > 100 µM | U-251 > 100 µM | NCI-H226 17.4 µM | OVCAR-3 > 100 µM | NCI-H522 > 100 µM

NC(CCSC(F)F)C(=O)O (stereo unspecified)
inactive: MOLT-4 > 100 µM | 786-0 > 100 µM | HOP-62 > 100 µM | LOX IMVI > 100 µM | HT-29 > 100 µM | K562 > 100 µM | UO-31 > 100 µM | HCC 2998 > 100 µM | OVCAR-5 > 100 µM | SNB-75 > 100 µM | CAKI-1 > 100 µM | U-251 > 100 µM | NCI-H226 > 100 µM | OVCAR-3 > 100 µM | NCI-H522 > 100 µM

NC(=O)C(=Cc1ccc(CP(=O)(O)O)cc1)C(N)=O
inactive: MOLT-4 > 100 µM | 786-0 > 100 µM | HOP-62 > 100 µM | LOX IMVI > 100 µM | HT-29 > 100 µM | K562 > 100 µM | UO-31 > 100 µM | HCC 2998 > 100 µM | OVCAR-5 > 100 µM | A498 > 100 µM | SNB-75 > 100 µM | CAKI-1 > 100 µM | U-251 > 100 µM | OVCAR-3 > 100 µM | NCI-H522 > 100 µM

CCCN1CN(C(C(=O)N[C@@H]2C(=O)N3C2SC(C)(C)C3C(=O)O)c2ccccc2)CSC1=S (stereo partly specified)
inactive: MOLT-4 > 100 µM | 786-0 > 100 µM | HOP-62 > 100 µM | LOX IMVI 50.9 µM | HT-29 48.1 µM | K562 41.6 µM | UO-31 > 100 µM | OVCAR-5 > 100 µM | A498 > 100 µM | SNB-75 > 100 µM | CAKI-1 > 100 µM | HL-60 48 µM | U-251 > 100 µM | OVCAR-3 32.2 µM | NCI-H522 23.1 µM

COC1=CC(=O)C2C(C1=O)[C@@H]1c3ccccc3OC(C)(C)[C@H]21 (stereo partly specified)
inactive: MOLT-4 10.1 µM | 786-0 19.1 µM | HOP-62 > 100 µM | LOX IMVI 14.2 µM | HT-29 28.1 µM | K562 19 µM | UO-31 15.2 µM | HCC 2998 > 100 µM | OVCAR-5 40.8 µM | A498 > 100 µM | SNB-75 10.6 µM | CAKI-1 16.4 µM | HL-60 16.4 µM | U-251 53.2 µM | NCI-H226 19.1 µM | OVCAR-3 15.1 µM | NCI-H522 13.9 µM

CNS(=O)(=O)NN(C)S(=O)(=O)c1ccc(Br)cc1
inactive: MOLT-4 > 100 µM | 786-0 > 100 µM | HOP-62 > 100 µM | LOX IMVI > 100 µM | HT-29 > 100 µM | K562 > 100 µM | UO-31 > 100 µM | HCC 2998 > 100 µM | A498 > 100 µM | SNB-75 > 100 µM | CAKI-1 > 100 µM | HL-60 > 100 µM | U-251 72.9 µM | NCI-H226 > 100 µM | OVCAR-3 > 100 µM | NCI-H522 > 100 µM

O=C(CC1C(=O)Nc2ccccc2S1(=O)=O)Nc1cccc(Cl)c1 (stereo unspecified)
inactive: MOLT-4 11.9 µM | 786-0 14.1 µM | LOX IMVI 15.2 µM | HT-29 17.5 µM | K562 17.8 µM | UO-31 16.6 µM | HCC 2998 18.2 µM | OVCAR-5 23.2 µM | A498 18.9 µM | SNB-75 16.8 µM | CAKI-1 21.1 µM | HL-60 18.5 µM | U-251 13.6 µM | NCI-H226 17.3 µM | OVCAR-3 15.6 µM | NCI-H522 16.9 µM

CCC1NCC(=O)c2c1[nH]c1ccccc21 (stereo unspecified)
inactive: MOLT-4 > 100 µM | 786-0 > 100 µM | LOX IMVI > 100 µM | HT-29 > 100 µM | K562 > 100 µM | UO-31 > 100 µM | HCC 2998 > 100 µM | OVCAR-5 > 100 µM | A498 > 100 µM | SNB-75 > 100 µM | CAKI-1 > 100 µM | HL-60 > 100 µM | U-251 > 100 µM | NCI-H226 > 100 µM | OVCAR-3 > 100 µM | NCI-H522 91.6 µM

O=C(O)CCSC(=O)Nc1ccc(/N=N/c2ccccc2)cc1
inactive: MOLT-4 30.2 µM | 786-0 > 100 µM | HOP-62 > 100 µM | LOX IMVI > 100 µM | HT-29 > 100 µM | K562 80.5 µM | UO-31 55.3 µM | HCC 2998 > 100 µM | OVCAR-5 > 100 µM | A498 69.5 µM | SNB-75 > 100 µM | CAKI-1 > 100 µM | HL-60 36.5 µM | U-251 64.6 µM | NCI-H226 > 100 µM | OVCAR-3 > 100 µM

O=C1CC2(C[C@@H]3CCCCCCCCC[C@@H](C3)C2)N1 (stereo partly specified)
inactive: MOLT-4 12.4 µM | 786-0 16.1 µM | HOP-62 17.1 µM | HT-29 12.8 µM | K562 20.8 µM | UO-31 14.4 µM | HCC 2998 12.2 µM | OVCAR-5 15.4 µM | A498 16.7 µM | SNB-75 6.71 µM | CAKI-1 12.6 µM | HL-60 15.1 µM | U-251 16.6 µM | NCI-H226 14.3 µM | NCI-H522 16.3 µM

COc1ccc(/C(Cl)=C/c2cc(OC)ccc2OC)cc1
inactive: MOLT-4 49.9 µM | 786-0 81.8 µM | HOP-62 > 100 µM | HT-29 62.2 µM | K562 47 µM | UO-31 98.9 µM | HCC 2998 87.5 µM | A498 92.9 µM | SNB-75 40.1 µM | HL-60 28.4 µM | U-251 84.7 µM | NCI-H226 44.7 µM | NCI-H522 46.9 µM

COC(=O)c1c(-c2ccccc2)sc(-c2cccc3ccccc23)c1C(=O)OC
inactive: MOLT-4 > 100 µM | 786-0 > 100 µM | LOX IMVI > 100 µM | HT-29 51.3 µM | K562 > 100 µM | UO-31 58.2 µM | HCC 2998 88.3 µM | OVCAR-5 > 100 µM | A498 > 100 µM | SNB-75 > 100 µM | CAKI-1 > 100 µM | HL-60 > 100 µM | U-251 > 100 µM | NCI-H226 > 100 µM | OVCAR-3 81.1 µM | NCI-H522 > 100 µM

COc1nc2nccc-2c2occn12
inactive: MOLT-4 > 100 µM | 786-0 > 100 µM | HOP-62 > 100 µM | LOX IMVI > 100 µM | HT-29 > 100 µM | K562 > 100 µM | UO-31 > 100 µM | HCC 2998 > 100 µM | OVCAR-5 > 100 µM | A498 > 100 µM | SNB-75 > 100 µM | CAKI-1 > 100 µM | U-251 > 100 µM | OVCAR-3 > 100 µM | NCI-H522 > 100 µM

CCOc1ccc(/C=C/C(=O)c2sc(NNC(C)=O)nc2C)cc1
inactive: MOLT-4 > 100 µM | 786-0 > 100 µM | HOP-62 > 100 µM | LOX IMVI > 100 µM | HT-29 > 100 µM | K562 > 100 µM | UO-31 > 100 µM | HCC 2998 > 100 µM | OVCAR-5 > 100 µM | A498 > 100 µM | SNB-75 > 100 µM | CAKI-1 > 100 µM | HL-60 > 100 µM | U-251 > 100 µM | OVCAR-3 > 100 µM | NCI-H522 > 100 µM

Cc1c(/C=N/NC(=O)c2cc(Br)cc(Br)c2O)c(=O)n(-c2ccccc2)n1C
inactive: MOLT-4 56.1 µM | 786-0 92 µM | HOP-62 52.7 µM | LOX IMVI 6.53 µM | HT-29 64.7 µM | K562 51.4 µM | UO-31 70.5 µM | HCC 2998 > 100 µM | OVCAR-5 > 100 µM | A498 > 100 µM | SNB-75 > 100 µM | CAKI-1 25.2 µM | HL-60 2.49 µM | U-251 69 µM | NCI-H226 90.6 µM | OVCAR-3 29.9 µM | NCI-H522 33 µM
